In publication PMC12396409, “Screening and hit evaluation of a microbial metabolite library against the pathogenic Plasmodium falciparum and Toxoplasma gondii parasites” (International Journal for Parasitology: Drugs and Drug …, 2025):
Like-named read-outs stand apart in the source and are kept apart here.

Legend:
[1] = tested on: P. falciparum 3D7 parasites; experiment: P. falciparum growth inhibition assay, 1-cycle (72 h treatment), SYBR DNA staining (library screen at 2 μg/mL and dose-response); type: cell-based, Plasmodium falciparum; settings: for activity at 2 µg/mL: Plasmodium falciparum, 3D7, 72 h
[2] = tested on: P. falciparum 3D7 parasites; experiment: P. falciparum growth inhibition assay, 2-cycle (120 h treatment), delayed-death screen and dose-response; type: cell-based, Plasmodium falciparum; settings: for activity at 2 µg/mL: Plasmodium falciparum, 3D7, 120 h
[3] = tested on: T. gondii RH strain (RH-Tub-eYFP) tachyzoites; experiment: microbe, parasite or virus in culture; type: cell-based, Toxoplasma gondii; settings: 72 h; for percent parasite growth at 2 µg/mL: Toxoplasma gondii
[4] = T. gondii, 2 μg/mL, values are growth (% of control)
[5] = library screen at 2 μg/mL, 72 h, % growth, replicate 1
[6] = library screen at 2 μg/mL, 72 h, % growth, replicate 2
[7] = library screen at 2 μg/mL, 120 h, % growth, replicate 1
[8] = library screen at 2 μg/mL, 120 h, % growth, replicate 2
[9] = library screen at 2 μg/mL, % growth, replicate 1
[10] = library screen at 2 μg/mL, % growth, replicate 2
[11] = P. falciparum 3D7, 72 h, parasite screen at 2 μg/mL, % growth, replicate 1
[12] = P. falciparum 3D7, 72 h, parasite screen at 2 μg/mL, % growth, replicate 2
[13] = P. falciparum 3D7, 120 h, parasite screen at 2 μg/mL, % growth, replicate 1
[14] = P. falciparum 3D7, 120 h, parasite screen at 2 μg/mL, % growth, replicate 2
[15] = T. gondii, parasite screen at 2 μg/mL, % growth, replicate 1
[16] = T. gondii, parasite screen at 2 μg/mL, % growth, replicate 2

For CC[C@H]1CCC[C@H](O)[C@@H](C)C(=O)C2=C[C@@H]3[C@@H](C=C[C@@H]4C[C@@H](O[C@@H]5O[C@@H](C)[C@H](OC)[C@@H](OC)[C@H]5OC)C[C@@H]34)[C@@H]2CC(=O)O1 [Spinosyn A pseudoaglycone], which IC50 ([1]; 3D7, 72 h treatment, mean ± S.D., n ≥ 3, read-out: IC50 (μM), P. falciparum) is on record?
The IC50 was over 1 µM.

What about the Pf_72h_%Growth_Rep1 ([1]; P. falciparum, 72 h, parasite screen 2 μg/mL, % growth, replicate 1) of the same molecule?
Its Pf_72h_%Growth_Rep1 is 8.11%.

And the Pf_72h_%Growth_Rep2 ([1]; P. falciparum, 72 h, parasite screen 2 μg/mL, % growth, replicate 2)?
The Pf_72h_%Growth_Rep2 was -6.27%.

And the Pf_120h_%Growth_Rep1 ([2]; P. falciparum, 120 h, parasite screen 2 μg/mL, % growth, replicate 1)?
The Pf_120h_%Growth_Rep1 was 17.26%.

And the Pf_120h_%Growth_Rep2 ([2]; P. falciparum, 120 h, parasite screen 2 μg/mL, % growth, replicate 2)?
The Pf_120h_%Growth_Rep2 was 10.80%.

And the Mean ([3]; T. gondii, 2 μg/mL, mean of both replicates, growth (% of control))?
Its Mean is 30.09.

And the “Replicate 1” value [3, 4]?
Its value is 50.49.

What about the “Replicate 2” value [3, 4] of the same molecule?
The value was 9.69.

And the Tg_72h_%Growth_Rep1 ([3]; T. gondii, parasite screen 2 μg/mL, % growth, replicate 1)?
The Tg_72h_%Growth_Rep1 was 50.49%.

What about the Tg_72h_%Growth_Rep2 ([3]; T. gondii, parasite screen 2 μg/mL, % growth, replicate 2) of the same molecule?
The Tg_72h_%Growth_Rep2 was 9.69%.

How did the Pf_72h_%Growth_Rep1 [1, 5] turn out when COc1oc([C@H]2C/C(=C/C(C)=C/c3ccc([N+](=O)[O-])cc3)CO2)c(C)c(=O)c1C [Aureothin] was run?
Its Pf_72h_%Growth_Rep1 is 103.52%.

And the Pf_72h_%Growth_Rep2 [1, 6]?
Its Pf_72h_%Growth_Rep2 is 87.70%.

And the Pf_120h_%Growth_Rep1 [2, 7]?
Its Pf_120h_%Growth_Rep1 is 128.40%.

What about the Pf_120h_%Growth_Rep2 [2, 8] of the same molecule?
The Pf_120h_%Growth_Rep2 was 61.20%.

What about the Tg_72h_%Growth_Rep1 [3, 9] of the same molecule?
The Tg_72h_%Growth_Rep1 was 66.52%.

What about the Tg_72h_%Growth_Rep2 [3, 10] of the same molecule?
Its Tg_72h_%Growth_Rep2 is 65.05%.

Which Pf_72h_%Growth_Rep1 ([1]; P. falciparum, 72 h, screen at 2 μg/mL, replicate 1) does the source give for CC[C@@H](C)/C=C(C)/C=C/C(=O)c1c(O)c(-c2ccc(O)cc2)cn(O)c1=O [Tenellin] here?
Its Pf_72h_%Growth_Rep1 is 58.91%.

And the Pf_72h_%Growth_Rep2 ([1]; P. falciparum, 72 h, screen at 2 μg/mL, replicate 2)?
The Pf_72h_%Growth_Rep2 was 96.26%.

And the Pf_120h_%Growth_Rep1 ([2]; P. falciparum, 120 h, screen at 2 μg/mL, replicate 1)?
The Pf_120h_%Growth_Rep1 was 76.98%.

What about the Pf_120h_%Growth_Rep2 ([2]; P. falciparum, 120 h, screen at 2 μg/mL, replicate 2) of the same molecule?
The Pf_120h_%Growth_Rep2 was 107.08%.

And the Tg_72h_%Growth_Rep1 ([3]; T. gondii, screen at 2 μg/mL, replicate 1)?
The Tg_72h_%Growth_Rep1 was -2.05%.

And the Tg_72h_%Growth_Rep2 ([3]; T. gondii, screen at 2 μg/mL, replicate 2)?
The Tg_72h_%Growth_Rep2 was 1.18%.

Which results are given for COc1oc(C2C/C(=C/C(C)=C/C(C)=C/C(C)=C/c3ccc([N+](=O)[O-])cc3)CO2)c(C)c(=O)c1C (stereo not shown) [BIA-N1058]?
Pf_72h_%Growth_Rep1 [1, 11]: 9.38%; Pf_72h_%Growth_Rep2 [1, 12]: 10.75%; Pf_120h_%Growth_Rep1 [2, 13]: 17.59%; Pf_120h_%Growth_Rep2 [2, 14]: 18.76%; Tg_72h_%Growth_Rep1 [3, 15]: 44.53%; Tg_72h_%Growth_Rep2 [3, 16]: 72.88%

How did the Pf_72h_%Growth_Rep1 [1, 5] turn out when Eprinomectin was run?
The Pf_72h_%Growth_Rep1 was 61.67%.

What about the Pf_72h_%Growth_Rep2 [1, 6] of the same molecule?
Its Pf_72h_%Growth_Rep2 is 29.66%.

What about the Pf_120h_%Growth_Rep1 [2, 7] of the same molecule?
The Pf_120h_%Growth_Rep1 was 33.01%.

And the Pf_120h_%Growth_Rep2 [2, 8]?
The Pf_120h_%Growth_Rep2 was 14.57%.

What about the Tg_72h_%Growth_Rep1 [3, 9] of the same molecule?
The Tg_72h_%Growth_Rep1 was 130.43%.

And the Tg_72h_%Growth_Rep2 [3, 10]?
The Tg_72h_%Growth_Rep2 was 107.67%.

How did the Pf_72h_%Growth_Rep1 [1, 5] turn out when O=C(O)C1CSC(c2ccccc2O)=N1 (stereo not shown) [Dihydroaeruginoic acid] was run?
Its Pf_72h_%Growth_Rep1 is 74.36%.

And the Pf_72h_%Growth_Rep2 [1, 6]?
Its Pf_72h_%Growth_Rep2 is 72.53%.

What about the Pf_120h_%Growth_Rep1 [2, 7] of the same molecule?
Its Pf_120h_%Growth_Rep1 is 53.55%.

And the Pf_120h_%Growth_Rep2 [2, 8]?
Its Pf_120h_%Growth_Rep2 is 57.05%.

What about the Tg_72h_%Growth_Rep1 [3, 9] of the same molecule?
Its Tg_72h_%Growth_Rep1 is 51.46%.

What about the Tg_72h_%Growth_Rep2 [3, 10] of the same molecule?
Its Tg_72h_%Growth_Rep2 is 84.93%.

Which Pf_72h_%Growth_Rep1 [1, 5] does the source give for COc1cc(C)c2c(c1)O[C@]1(C)Cc3cc4c(c(O)c3[C@H]2O1)C(=O)c1c(O)c(Cl)c(O)c(Cl)c1C4(C)C [Bischloroanthrabenzoxocinone] here?
Its Pf_72h_%Growth_Rep1 is 16.72%.

What about the Pf_72h_%Growth_Rep2 [1, 6] of the same molecule?
The Pf_72h_%Growth_Rep2 was 45.58%.

And the Pf_120h_%Growth_Rep1 [2, 7]?
Its Pf_120h_%Growth_Rep1 is 23.08%.

What about the Pf_120h_%Growth_Rep2 [2, 8] of the same molecule?
Its Pf_120h_%Growth_Rep2 is 23.09%.

And the Tg_72h_%Growth_Rep1 [3, 9]?
Its Tg_72h_%Growth_Rep1 is 50.70%.

And the Tg_72h_%Growth_Rep2 [3, 10]?
The Tg_72h_%Growth_Rep2 was 75.56%.

What does the source list for C=C1[C@@H](C)[C@H]2[C@H](Cc3ccccc3)NC(=O)[C@]23[C@H](OC(C)=O)[C@@H]2O[C@H]2[C@@](C)(O)C(=O)[C@@H](C)C/C=C\[C@H]3[C@@H]1O [Epoxycytochalasin D, 19,20-]?
Pf_72h_%Growth_Rep1 [1, 5]: 5.59%; Pf_72h_%Growth_Rep2 [1, 6]: 1.64%; Pf_120h_%Growth_Rep1 [2, 7]: 6.52%; Pf_120h_%Growth_Rep2 [2, 8]: -0.52%; Tg_72h_%Growth_Rep1 [3, 9]: 2.15%; Tg_72h_%Growth_Rep2 [3, 10]: 1.47%

N#Cc1cn([C@@H]2O[C@H](CO)[C@@H](O)[C@H]2O)c2ncnc(N)c12 [Toyocamycin] was tested. Which activity at 2 µg/mL ([1]; P. falciparum, 72 h, screen at 2 μg/mL, replicate 1, read-out: Pf_72h_%Growth_Rep1) did it give?
Its activity at 2 µg/mL is 2.78%.

What about the activity at 2 µg/mL ([1]; P. falciparum, 72 h, screen at 2 μg/mL, replicate 2, read-out: Pf_72h_%Growth_Rep2) of the same molecule?
The activity at 2 µg/mL was 4.02%.

And the activity at 2 µg/mL ([2]; P. falciparum, 120 h, screen at 2 μg/mL, replicate 1, read-out: Pf_120h_%Growth_Rep1)?
The activity at 2 µg/mL was 25.6%.

What about the activity at 2 µg/mL ([2]; P. falciparum, 120 h, screen at 2 μg/mL, replicate 2, read-out: Pf_120h_%Growth_Rep2) of the same molecule?
Its activity at 2 µg/mL is 6.44%.

What about the percent parasite growth at 2 µg/mL ([3]; T. gondii, screen at 2 μg/mL, replicate 1, read-out: Tg_72h_%Growth_Rep1) of the same molecule?
Its percent parasite growth at 2 µg/mL is 0.78%.

What about the percent parasite growth at 2 µg/mL ([3]; T. gondii, screen at 2 μg/mL, replicate 2, read-out: Tg_72h_%Growth_Rep2) of the same molecule?
The percent parasite growth at 2 µg/mL was 1.19%.

How did the Pf_72h_%Growth_Rep1 [1, 5] turn out when C=CC(C)(C)[C@]12C[C@@H]3C(=O)Nc4ccccc4C(=O)N3[C@H]1N(C(C)=O)c1ccccc12 [Acetylaszonalenin] was run?
The Pf_72h_%Growth_Rep1 was 98.36%.

And the Pf_72h_%Growth_Rep2 [1, 6]?
Its Pf_72h_%Growth_Rep2 is 85.99%.

And the Pf_120h_%Growth_Rep1 [2, 7]?
Its Pf_120h_%Growth_Rep1 is 140.03%.

And the Pf_120h_%Growth_Rep2 [2, 8]?
Its Pf_120h_%Growth_Rep2 is 96.89%.

What about the Tg_72h_%Growth_Rep1 [3, 9] of the same molecule?
Its Tg_72h_%Growth_Rep1 is 84.46%.

What about the Tg_72h_%Growth_Rep2 [3, 10] of the same molecule?
The Tg_72h_%Growth_Rep2 was 90.00%.

How did the Pf_72h_%Growth_Rep1 [1, 11] turn out when CO[C@@H]1[C@@H](OC(N)=O)[C@@H](O)[C@H](Oc2ccc3c(O)c(NC(=O)c4ccc(O)c(CC=C(C)C)c4)c(=O)oc3c2C)OC1(C)C [BIA-N1306] was run?
Its Pf_72h_%Growth_Rep1 is 77.54%.

And the Pf_72h_%Growth_Rep2 [1, 12]?
The Pf_72h_%Growth_Rep2 was 85.29%.

What about the Pf_120h_%Growth_Rep1 [2, 13] of the same molecule?
Its Pf_120h_%Growth_Rep1 is 15.07%.

What about the Pf_120h_%Growth_Rep2 [2, 14] of the same molecule?
Its Pf_120h_%Growth_Rep2 is 13.28%.

And the Tg_72h_%Growth_Rep1 [3, 15]?
The Tg_72h_%Growth_Rep1 was 9.17%.

What about the Tg_72h_%Growth_Rep2 [3, 16] of the same molecule?
Its Tg_72h_%Growth_Rep2 is 93.65%.
